Measured values as given in article PMC7449217, “The FDA-Approved Drug Nelfinavir Inhibits Lytic Cell-Free but Not Cell-Associated Nonlytic Transmission of Human Adenovirus” (Antimicrobial Agents and Chemotherapy, 2020).
Where a name gives a salt, the structure may show the parent alone.

What was measured:
L3/p23 cysteine protease = target: T1, L3/p23 cysteine protease (Human adenovirus C serotype 5, UniProt P03253); experiment: Western blot analysis of HAdV protease activity (pVI/VI, pVII/VII in purified HAdV-C5); format: cell-based; conditions: purified HAdV-C5 grown in the presence of nelfinavir
T1 construct: Double-CsCl-purified HAdV particles grown in the presence or absence of nelfinavir; endogenous in cells
Protocol: HAdV-C5 was amplified in medium containing 0, 1.25, or 3 μM nelfinavir for 4 days. Cells were harvested and disrupted by three freeze-thaw cycles. The cell debris was removed by freon extraction, and mature full HAdV virions were purified by two rounds of CsCl gradient ultracentrifugation ([162]). The protein concentration was determined by a bicinchoninic acid (BCA) assay (Pierce BCA protein assay kit; Thermo Fisher Scientific, Waltham, MA, USA). For long-term storage, virus stocks were supplemented with 10% (vol/vol) glycerol and kept at −80°C.
Double-CsCl-purified HAdV particles grown in the presence or absence of nelfinavir (HAdV-C5^±Nelfinavir stocks) and a size standard (PageRuler plus; Thermo Fisher Scientific, Waltham, MA, USA) were size separated on a 12% acrylamide gel under reducing conditions and transferred to a polyvinylidene difluoride (PVDF) membrane. HAdV proteins were detected using primary antibodies, 1:10,000 R72 rabbit antifiber ([181]), 1:1,000 rabbit anti-pVI/VI ([51]), and 1:1,000 R3 rabbit anti-pVII/VII (Ulf Pettersson, Uppsala University), and visualized using goat anti-rabbit-horseradish peroxidase (HRP) (catalog number 7074; Cell Signaling Technology, Danvers, MA, USA) and the ECL Prime Western blotting detection reagent (GE Healthcare, Pittsburgh, PA, USA). […]

A549 cells = experiment: TC50, number of nuclei in noninfected treated cells; format: cell-based, human
Protocol: (§1) Per 96-well plate, 15,000 A549 cells, 10,000 HeLa cells, 30,000 HBECs, 30,000 HCE cells, or 30,000 CMT-93 cells were seeded in 100 μl of the respective supplemented medium and allowed to settle for 1 h at room temperature (RT) prior to cell culture incubation at 37°C with 5% CO2 and 95% humidity. The following day, the medium was replaced with 50 μl of the respective virus stock dilution giving rise to 5 to 50 plaques per 96-well plate. Fifty microliters of nelfinavir to obtain a 0.1 to 50 μM final concentration or the DMSO solvent control was also added, both in supplemented medium. For each experiment, a noninfected, treated control was performed. For uphill plaque assays, the medium volume was increased to 150 μl with identical virus and drug concentrations. For wash-in/washout experiments, the virus was incubated on cells in supplemented medium for 1 h at 37°C, cells were washed with PBS, and a 100-μl drug dilution in supplemented medium was added. All experiments were performed in four technical replicates or as indicated. Cells were incubated under standard cell culture conditions. At the indicated times postinfection, the cells were fixed, and the nuclei were stained for 1 h at RT by the addition of 33 μl 16% (wt/vol) paraformaldehyde (PFA) and 4 μg/ml Hoechst 33342 (Sigma-Aldrich, St. Louis, MO, USA) in PBS. Cells were washed three times with PBS and stored in PBS supplemented with 0.02% N3 for infections with viruses harboring a GFP transgene. For wild-type (wt) viruses, cells were quenched in PBS supplemented with 50 mM NH4Cl, permeabilized using 0.2% (vol/vol) Triton X-100 in PBS, and blocked with 0.5% (wt/vol) bovine serum albumin (BSA) in PBS. […] Plates were imaged on either an IXM-XL or an IXM-C automated high-throughput fluorescence microscope (Molecular Devices, San Jose, CA, USA) using a 4× objective in wide-field mode. Hoechst staining was recorded in the 4′,6-diamidino-2-phenylindole (DAPI) channel, the fluorescein isothiocyanate (FITC)/GFP channel was acquired for viral GFP, and the tetramethyl rhodamine isothiocyanate (TRITC)/Texas Red channel was acquired for hexon immunofluorescence staining.
(§2) The infection phenotype for each well was quantified using Plaque2.0 ([101]). The number of plaques was determined based on the infection signal (viral GFP or hexon immunofluorescence staining). […] Data were plotted, and the EC50 (infected and treated cells), the TC50 (noninfected, treated cells), as well as the corresponding standard errors (SE) were determined using curve fitting in GraphPad (version 8.1.2; GraphPad Software, Inc.) using three-parameter inhibitor concentration-versus-response nonlinear regression. The mean TI50 was calculated as the […] ratio of the means. The TI50 SE was calculated by error propagation.

HAdV-D37 = experiment: fluorescence-based plaque-forming assay, A549 cells; format: cell-based, human adenovirus
Protocol: (§3) Per 96-well plate, 15,000 A549 cells, 10,000 HeLa cells, 30,000 HBECs, 30,000 HCE cells, or 30,000 CMT-93 cells were seeded in 100 μl of the respective supplemented medium and allowed to settle for 1 h at room temperature (RT) prior to cell culture incubation at 37°C with 5% CO2 and 95% humidity. The following day, the medium was replaced with 50 μl of the respective virus stock dilution giving rise to 5 to 50 plaques per 96-well plate. Fifty microliters of nelfinavir to obtain a 0.1 to 50 μM final concentration or the DMSO solvent control was also added, both in supplemented medium. For each experiment, a noninfected, treated control was performed. For uphill plaque assays, the medium volume was increased to 150 μl with identical virus and drug concentrations. For wash-in/washout experiments, the virus was incubated on cells in supplemented medium for 1 h at 37°C, cells were washed with PBS, and a 100-μl drug dilution in supplemented medium was added. All experiments were performed in four technical replicates or as indicated. Cells were incubated under standard cell culture conditions. At the indicated times postinfection, the cells were fixed, and the nuclei were stained for 1 h at RT by the addition of 33 μl 16% (wt/vol) paraformaldehyde (PFA) and 4 μg/ml Hoechst 33342 (Sigma-Aldrich, St. Louis, MO, USA) in PBS. Cells were washed three times with PBS and stored in PBS supplemented with 0.02% N3 for infections with viruses harboring a GFP transgene. For wild-type (wt) viruses, cells were quenched in PBS supplemented with 50 mM NH4Cl, permeabilized using 0.2% (vol/vol) Triton X-100 in PBS, and blocked with 0.5% (wt/vol) bovine serum albumin (BSA) in PBS. Cells were incubated with 381.7 ng/ml mouse anti-HAdV hexon protein antibody (Mab8052; Sigma-Aldrich, St. Louis, MO, USA) and subsequently stained using 2 μg/ml goat anti-mouse-Alexa Fluor 594 (catalog number A21203 or A32742; Thermo Fisher Scientific, Waltham, MA, USA). Plates were imaged on either an IXM-XL or an IXM-C automated high-throughput fluorescence microscope (Molecular Devices, San Jose, CA, USA) using a 4× objective in wide-field mode. Hoechst staining was recorded in the 4′,6-diamidino-2-phenylindole (DAPI) channel, the fluorescein isothiocyanate (FITC)/GFP channel was acquired for viral GFP, and the tetramethyl rhodamine isothiocyanate (TRITC)/Texas Red channel was acquired for hexon immunofluorescence staining.
(§4) The infection phenotype for each well was quantified using Plaque2.0 ([101]). The number of plaques was determined based on the infection signal (viral GFP or hexon immunofluorescence staining). Nuclei stained with Hoechst were segmented by using CellProfiler ([178]). Infected nuclei were classified based on the median infection signal per nucleus in CellProfiler. Data were plotted, and the EC50 (infected and treated cells), the TC50 (noninfected, treated cells), as well as the corresponding standard errors (SE) were determined using curve fitting in GraphPad (version 8.1.2; GraphPad Software, Inc.) using three-parameter inhibitor concentration-versus-response nonlinear regression. The mean TI50 was calculated as the […] ratio of the means. The TI50 SE was calculated by error propagation.

HAdV-B14 = experiment: as above; format: cell-based, human adenovirus
Protocol: as §3, §4

HAdV-A31 = experiment: fluorescence-based plaque-forming assay, HCE cells; format: cell-based, human adenovirus; conditions: HAdV-A31 in HCE
Protocol: as §1, §2

HAdV-C2-dE3B-GFP [1] = experiment: fluorescence-based plaque-forming assay, HCE cells; format: cell-based, human adenovirus
Protocol: as §1, §2

HAdV-B35-pIX-FS2A-GFP = experiment: fluorescence-based plaque-forming assay, HBEC; format: cell-based, human adenovirus
Protocol: as §3, §4

HAdV-B3-pIX-FS2A-GFP = experiment: fluorescence-based plaque-forming assay, HBEC; format: cell-based, human adenovirus
Protocol: as §3, §4

HAdV-C2-dE3B-GFP [2] = experiment: fluorescence-based plaque-forming assay, HBEC; format: cell-based, human adenovirus; conditions: for TI50 (TC50/IC50): HAdV-C2-dE3B-GFP in HBEC, 4 dpi, GFP
Protocol: as §3, §4

HAdV-C2-dE3B-GFP-dADP = experiment: fluorescence-based plaque-forming assay, HBEC; format: cell-based, human adenovirus; conditions: for TI50 (TC50/IC50): HAdV-C2-dE3B-GFP-dADP in HBEC, 4 dpi, GFP
Protocol: as §3, §4

T1 sequence (P03253 whole entry): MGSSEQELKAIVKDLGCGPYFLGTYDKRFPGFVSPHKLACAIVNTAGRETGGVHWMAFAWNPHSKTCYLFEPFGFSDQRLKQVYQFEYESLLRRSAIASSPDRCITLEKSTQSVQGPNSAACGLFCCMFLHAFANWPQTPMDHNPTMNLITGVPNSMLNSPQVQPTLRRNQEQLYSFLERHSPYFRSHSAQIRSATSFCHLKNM

SMILES: Cc1c(O)cccc1C(=O)N[C@@H](CSc1ccccc1)[C@H](O)CN1C[C@H]2CCCC[C@H]2C[C@H]1C(=O)NC(C)(C)C [Nelfinavir, Nelfinavir mesylate]
- effect on proteolytic maturation of the virus by L3/p23 cysteine protease (L3/p23 cysteine protease): did not affect
- TC50 (A549 cells; human, 1 days): 49.50 µM
- TC50 (50% loss of cell nuclei) (A549 cells; human, 82 h): 10.01 µM
- TC50 (A549 cells; human, 6 days): 19.08 µM
- TC50 (A549 cells; noninfected A549, nuclei, 3 dpi, line HAdV-C5): 11.91 µM
- TI50 (TC50/IC50) (HAdV-D37; HAdV-D37 in A549, 5 dpi, Hexon): 1.29
- EC50 (HAdV-D37; Human adenovirus sp., HAdV-D37 in A549, fixation 5 dpi, read-out Hexon, plaque numbers): 16.7 µM
- TI50 (TC50/IC50) (HAdV-B14; HAdV-B14 in A549, 3 dpi, Hexon): 14.22
- EC50 (HAdV-B14; Human adenovirus sp., HAdV-B14 in A549, fixation 3 dpi, read-out Hexon, plaque numbers): 0.84 µM
- TI50 (TC50/IC50) (HAdV-A31; 8 dpi, Hexon): 1.08
- EC50 (HAdV-A31; Human adenovirus sp., fixation 8 dpi, read-out Hexon, plaque numbers): 18.1 µM
- TI50 (TC50/IC50) (HAdV-C2-dE3B-GFP [1]; HAdV-C2-dE3B-GFP in HCE, 5 dpi, GFP): 54.04
- EC50 (HAdV-C2-dE3B-GFP [1]; Human adenovirus sp., HCE): 0.55 µM
- TI50 (TC50/IC50) (HAdV-B35-pIX-FS2A-GFP; HAdV-B35-pIX-FS2A-GFP in HBEC, 6 dpi, GFP): 1.91
- EC50 (HAdV-B35-pIX-FS2A-GFP; Human adenovirus sp.): 6.99 µM
- TI50 (TC50/IC50) (HAdV-B3-pIX-FS2A-GFP; HAdV-B3-pIX-FS2A-GFP in HBEC, 8 dpi, GFP): 1.99
- EC50 (HAdV-B3-pIX-FS2A-GFP; Human adenovirus sp.): 6.41 µM
- TI50 (TC50/IC50) (HAdV-C2-dE3B-GFP [2]): 55.18
- TI50 (TC50/IC50) (HAdV-C2-dE3B-GFP [2]; listed as nelfinavir): 55.2
- EC50 (HAdV-C2-dE3B-GFP [2]; Human adenovirus sp.): 0.53 µM
- TI50 (TC50/IC50) (HAdV-C2-dE3B-GFP-dADP): 4.56
- TI50 (TC50/IC50) (HAdV-C2-dE3B-GFP-dADP; listed as nelfinavir): 4.6
- EC50 (HAdV-C2-dE3B-GFP-dADP; Human adenovirus sp.): 2.72 µM
